# Values quoted from earlier work, collected in patent US20220273779A1, “TAU PEPTIDE ANTIGENS AND ANTIBODIES BINDING THERETO FOR THE TREATMENT OF TAUOPATHIES” (The Board of Regents of the University of Texas System, priority 2018, published 2022).
# Like-named read-outs stand apart in the source and are kept apart here.
# Assays:
# [1] = RRMS, first-line treatments
substance,measurement,setting,value
glatiramer acetate,Irritation at the injection site,intramuscular injections,≤ 33%
same,Irritation at the injection site,subcutaneous injections,up to 90%
same,Reduction of relapses,[1],approximately 30%
